Measured values taken from PubChem BioAssay (NCI).
Where “and” joins values, the source holds several entries; their conditions need not be identical. Equal values may be shown once.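 Growth conditions: 96-well plates. Treatment: test compound, 48 hours, 5 concentrations. Analysis: linear interpolation between bracketing concentrations; unreached endpoints set to highest concentration. GI50: concentration for 50% inhibition of growth. TGI is the concentration that stops growth completely.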

Columns and labels:
Test in all cases: DTP human tumour cell line panel, 48 h
CAKI-1 renal = test system: CAKI-1 renal
COLO 205 colon = test system: COLO 205 colon
DU-145 prostate = test system: DU-145 prostate
KM12 colon = test system: KM12 colon
MCF7 breast = test system: MCF7 breast
MDA-MB-435 = test system: MDA-MB-435
RPMI-8226 leukemia = test system: RPMI-8226 leukemia
SK-MEL-2 melanoma = test system: SK-MEL-2 melanoma
SNB-75 CNS = test system: SNB-75 CNS
U251 CNS = test system: U251 CNS

Compound	GI50 (CAKI-1 renal)	TGI (CAKI-1 renal)	GI50 (COLO 205 colon)	TGI (COLO 205 colon)	GI50 (DU-145 prostate)	TGI (DU-145 prostate)	GI50 (KM12 colon)	TGI (KM12 colon)	GI50 (MCF7 breast)	TGI (MCF7 breast)	GI50 (MDA-MB-435)	TGI (MDA-MB-435)	GI50 (RPMI-8226 leukemia)	TGI (RPMI-8226 leukemia)	GI50 (SK-MEL-2 melanoma)	TGI (SK-MEL-2 melanoma)	GI50 (SNB-75 CNS)	TGI (SNB-75 CNS)	GI50 (U251 CNS)	TGI (U251 CNS)
Cc1ccc(C=C2C(Cl)=C(Cl)C(Cl)=C2Cl)cc1	0.503 µM	2.16 µM	0.737 µM	2.09 µM	0.926 µM	3.13 µM	1.15 µM	2.56 µM	0.39 µM	2.37 µM	0.42 µM	1.6 µM	0.224 µM	0.653 µM	1.9 µM	4.87 µM	1.16 µM	2.44 µM	0.664 µM	1.96 µM
CCCCNS(=O)(=O)c1n[nH]c(=O)[nH]c1=O		> 100 µM		> 100 µM		> 100 µM		> 100 µM		> 100 µM		> 100 µM		> 100 µM		> 100 µM		> 100 µM		> 100 µM
NC(=S)N/N=C1\c2ccccc2-c2c(F)c(F)c(F)c(F)c21	2.34 µM	7.16 µM	8.01 µM	19.6 µM	5.39 µM	17 µM	5.88 µM	16.3 µM	2.39 µM	14.3 µM	7.44 µM	20.6 µM	3.92 µM	> 55.9 µM	5.38 µM	21.7 µM	6.36 µM	21.6 µM	3.16 µM	10.2 µM
O=C(c1ccc(C(F)(F)F)c(Cl)c1)N(Cc1ccc(Cl)cc1)c1ccc(-c2cc(C(F)(F)F)[nH]n2)c(O)c1	1.01 µM	3.04 µM	0.865 µM	1.64 µM	1.43 µM	5.34 µM	0.951 µM	2.19 µM	1.12 µM	3.85 µM	1.25 µM	3.66 µM	0.659 µM	2.23 µM	1.16 µM	3.13 µM	0.989 µM	3.24 µM	0.882 µM	2.25 µM
Cn1c(=O)nc2n(-c3ccc(Cl)cc3)c3cc(Cl)ccc3nc-2c1=O		20.7 µM		5.14 µM		29 µM		25.6 µM		2.8 µM		3.14 µM		22.8 µM		5.63 µM		14.8 µM		33 µM
Cn1c2c(c3ccccc31)CCN(CCCCN1CCN(c3ccccc3)CC1)C2=O		98.5 µM		26.2 µM		> 100 µM		> 89.9 µM		63.2 µM		36.7 µM		> 92.3 µM		> 77.6 µM		> 100 µM		> 84.2 µM
C=CC(=O)N1C[C@@H]2CCOc3c(Cl)c(-c4c(O)cccc4F)c(F)c4ncnc(c34)N2C[C@H]1C	2.67 µM	19.4 µM	17.6 µM	35.9 µM	10.5 µM	22.3 µM	14.7 µM	36.1 µM	14.1 µM	34.5 µM	11.8 µM	29.6 µM	5.96 µM	> 100 µM	14 µM	28.7 µM	10.8 µM	23.5 µM	15 µM	36.2 µM
Clc1cc(Cl)c(OCCCCCCN2CCNCC2)c(Cl)c1	2.09 µM	6.39 µM	1.82 µM	3.58 µM	4.45 µM	15.9 µM	1.8 µM	3.6 µM	1.89 µM	4.2 µM	2.02 µM	4.23 µM	2.11 µM	4.62 µM	5.52 µM	18.1 µM	2.64 µM	11.7 µM	2.3 µM	6.09 µM
COCCOC1=CC(=O)c2c(O)ccc(O)c2C1=O	1.68 µM	4.37 µM and 3.14 µM	0.32 µM	0.661 µM and 1.2 µM	0.5 µM	2.12 µM and 1.62 µM	3.05 µM	3.54 µM and 11.7 µM	0.51 µM	0.933 µM and 1.92 µM		0.324 µM and 0.323 µM	2.03 µM	8.86 µM and 5.06 µM	1.86 µM	2.58 µM and 3.82 µM	1.69 µM	3.43 µM and 3.09 µM		3.55 µM and 3.54 µM
C=C1C(=O)O[C@H]2[C@H](OC(C)=O)[C@@H](C)CCCC3(C)OC3CCC3(CO3)[C@H](O)C[C@@H]12 (stereo not given in full)	12.1 µM	27.8 µM	3.8 µM	65.6 µM	3.92 µM	14.3 µM	13.6 µM	28.5 µM	5.02 µM	28.7 µM	9.24 µM	28.6 µM	1.38 µM	4.08 µM	26.3 µM	> 100 µM	47 µM	> 100 µM	10.4 µM	22.1 µM
O=c1cnnc(N/N=C/c2ccccc2O)[nH]1	3.01 µM	> 100 µM	0.33 µM	> 100 µM	6.58 µM	> 100 µM	2.85 µM	> 100 µM	0.0396 µM		3.54 µM	> 100 µM	1.23 µM	> 72.9 µM	21 µM	> 100 µM	8.03 µM	87.3 µM	2.11 µM	> 100 µM
O=C(O)c1cc(=O)cc(C(=O)O)o1	> 100 µM	> 100 µM	> 100 µM	> 100 µM	> 100 µM	> 100 µM	> 100 µM	> 100 µM	> 100 µM	> 100 µM	> 100 µM	> 100 µM	> 100 µM	> 100 µM	> 100 µM	> 100 µM	> 100 µM	> 100 µM	> 100 µM	> 100 µM
N#CC(C#N)=C1CCOc2ccc(F)cc21	15.4 µM	51.9 µM	21.7 µM	67.6 µM	14 µM	34.6 µM	49.7 µM	> 100 µM	11.3 µM	23.3 µM	> 100 µM	> 100 µM	17.4 µM	38.4 µM	> 100 µM	> 100 µM	22.7 µM	81.9 µM	11.2 µM	23.2 µM
COc1cccc(-c2cc(=O)c3cc(N4CCOCC4)ccc3[nH]2)c1		> 100 µM	0.0353 µM	0.0463 µM and 0.234 µM	0.0546 µM		0.0243 µM		0.0275 µM	20.1 µM		0.0256 µM	0.135 µM		0.0937 µM					
Cc1cnc2oc3ccc(O)cc3c2c1-c1ccccc1	58.6 µM	> 100 µM	> 100 µM	> 100 µM	62.5 µM	> 100 µM	> 100 µM	> 100 µM	41 µM	> 100 µM	> 100 µM	> 100 µM	> 100 µM	> 100 µM	> 100 µM	> 100 µM	21.2 µM	> 100 µM	17.9 µM	51 µM
O=C1CC(c2ccccc2)Cc2nc3ccc(Br)cc3cc21 (stereo not given)	0.459 µM	> 100 µM	0.281 µM	1.8 µM	0.209 µM	> 100 µM	0.368 µM	> 37.7 µM	2.75 µM	> 100 µM	0.0328 µM	0.126 µM	2.92 µM	> 100 µM	0.283 µM	> 100 µM	0.187 µM	> 90.1 µM	0.514 µM	> 100 µM
O=C(C=P(c1ccccc1)(c1ccccc1)c1ccccc1)CCl	0.98 µM	2.81 µM	1.53 µM	3.66 µM	1.13 µM	2.38 µM	1.94 µM	5.09 µM	0.403 µM	1.93 µM	0.894 µM	2.34 µM	0.965 µM	4.45 µM	1.79 µM	3.87 µM	1.19 µM	7.57 µM	1.58 µM	3.7 µM
C#Cc1cccc(Nc2ncnc3ccc(OCCCCNCCS(C)(=O)=O)cc23)c1	2.79 µM	> 25 µM	5.58 µM	12.3 µM	4.34 µM	> 25 µM	9.74 µM	> 25 µM	9.5 µM	> 25 µM	5.37 µM	12.5 µM	4.59 µM	15.3 µM	7.75 µM	17.8 µM	10.7 µM	> 25 µM	6.43 µM	> 23.3 µM
CCOC(=O)C1=C(C)NC(=O)NC1CN1C(=O)c2ccccc2C1=O (stereo not given)	> 100 µM	> 100 µM	> 100 µM	> 100 µM	> 100 µM	> 100 µM	> 100 µM	> 100 µM	> 100 µM	> 100 µM	> 100 µM	> 100 µM	> 100 µM	> 100 µM	> 100 µM	> 100 µM	> 100 µM	> 100 µM	> 100 µM	> 100 µM
COc1ccc2c3c1OC1C(OC)(OC)C=C[C@@]4(Br)[C@@H](C2)N(CC2CC2)CC[C@]314 (stereo not given in full)		> 100 µM		94.1 µM		> 100 µM		> 100 µM		> 100 µM		> 100 µM		> 100 µM		> 100 µM		> 100 µM		> 100 µM
COc1cc(/C=C2\CCC/C(=C\c3ccc(O)c(OC)c3)C2=O)ccc1O	1.88 µM	8.46 µM and 5.99 µM	3.61 µM	24.4 µM and 13.6 µM	1.72 µM	13.5 µM and 5.95 µM	1.25 µM	5.83 µM and 2.62 µM	2.1 µM	40.5 µM and 9.81 µM	1.42 µM		0.397 µM	10.8 µM and 3.59 µM	1.96 µM	12.7 µM and 4.94 µM	3.64 µM and 1.99 µM	12.7 µM and 13.7 µM	1.62 µM	8.89 µM and 4.21 µM
CN(C)CC(=O)Nc1ccc2ncnc(Nc3ccc(Oc4cccc(C(F)(F)F)c4)c(Cl)c3)c2c1	1.71 µM	7.54 µM			2.13 µM	6.78 µM	1.91 µM	4 µM	1.53 µM	3.02 µM	1.66 µM	3.14 µM	1.9 µM	5.51 µM	2.04 µM	4.37 µM	1.33 µM	2.82 µM	1.79 µM	3.99 µM
Oc1ccc2c3c1OC1c4[nH]ncc4C[C@H]4[C@@H](C2)N(CC2CC2)CC[C@]314 (stereo not given in full)		> 100 µM		> 100 µM		> 100 µM		> 100 µM		> 100 µM		> 100 µM		> 100 µM		> 100 µM		> 100 µM		> 100 µM
O=c1c2ccccc2c(/C=N\NC2=NCCN2)c2oc3ccccc3n12	27.2 µM	> 100 µM	18.8 µM	38.7 µM	15 µM	34.7 µM	16.7 µM	34.4 µM	18.5 µM	40.8 µM	38 µM	> 100 µM	28.6 µM	> 100 µM	21.8 µM	87.6 µM	19.4 µM	42 µM	18.7 µM	51.2 µM
CC(C)(C)c1cc(/C=N/NC(=O)c2ccccc2NC(=O)c2cccs2)c(O)c(C(C)(C)C)c1	0.536 µM	> 100 µM	0.412 µM	22.2 µM	4.13 µM	> 100 µM	0.831 µM	> 100 µM	0.485 µM	> 100 µM	2.46 µM	77.7 µM	1.05 µM	14 µM	20.2 µM	> 100 µM	13.1 µM	> 100 µM	0.7 µM	7.64 µM
CCCCCCn1c(SC)nc(COC(=O)NC)c1COC(=O)NC		29.1 µM		29.2 µM		30.1 µM		32.6 µM		38 µM		41.9 µM		67.7 µM		49.9 µM		27.8 µM		
C/C(=N\OCC(O)CNCCSCc1ccccc1)c1ccccc1Cl (stereo not given)		34.6 µM		38.4 µM		52.2 µM		40.2 µM		44.6 µM		34.4 µM		43.4 µM		62.7 µM		39.9 µM		
COc1ccc(C2CC(c3ccc(Nc4ccnc5cc(Cl)ccc45)cc3)=NN2C=O)cc1 (stereo not given)	> 100 µM	> 100 µM	3.56 µM	> 100 µM	38 µM	> 100 µM	16.5 µM	> 100 µM	8.78 µM	> 100 µM	1.72 µM	5.22 µM	2.71 µM	48.6 µM			> 100 µM	> 100 µM	15 µM	> 100 µM
